Legend:
[1] = test system: B16F10 murine melanoma cells; experiment: Dual flank B16F10 model, injected and contralateral tumors; type: in vivo, C57BL/6 mice
Source text: In addition, activation of the STING pathway induces the upregulation of immune pathway checkpoints, which subsequently reduce T-cell-mediated cell killing, and thus moderate the effects of STING pathway agonism as a therapeutic rationale (Cell Rep. 2015 May 19; 11(7):1018-30). To test both hypotheses, C57BL/6 mice were inoculated subcutaneously with 1×10^6 and 5×10^5 B16F10 murine melanoma cells into right and left flank of mice, respectively (n=5 mice per group). Seven, ten, and thirteen days post-inoculation, the tumor at right flank were injected intratumorally with exosomes, 20 μg of free 3-3 cAIMPdFSH, 0.1 μg of free 3-3 cAIMPdFSH, or 0.1 μg 3-3 cAIMPdFSH loaded in PTGFRN-overexpressing exosomes, with a control antibody (α-IgG; 10 mg/kg; BioLegend, Catalog #400559, Clone RTK3758) or an antagonistic antibody against PD-1 (a PD-1; 10 mg/kg; BioLegend, Catalog #114111, Clone RMPI-14). Antibodies were injected intraperitoneally. Tumor volumes were measured daily until day 21, and animals were sacrificed when tumor volume reached 2000 mm^3.

[2] = test system: OVA-reactive splenic T-cells; experiment: OVA-specific memory T-cell response in E.G7-OVA model; type: in vivo, C57BL/6 mice
Method: STING pathway agonism in dendritic cells enhances antigen presentation, IFNβ production, and recruits CD8+ memory T-cells to elicit a durable adaptive immune response. To determine whether Exo STING could induce a memory T-cell response to a defined antigen, an antigen-specific T-cell response study was carried out using purified ovalbumin (OVA). C57BL/6 mice were injected intraperitoneally with 200 μg OVA mixed with either PBS, 20 μg ML RR-S2, 0.2 μg ML RR-S2, or 0.2 μg ML RR-S2 loaded in PTGFRN-overexpressing exosomes (n=4-10 mice per group). […] Isolated lymphocytes were analyzed by flow cytometry by measuring binding to immobilized tetrameric MHC class I bound to the OVA peptide SIINFEKL and phycoerythrin (PE) (iTAg Tetramer/PE—H-2 OVA; MBL®, Code #T03000). OVA-reactive memory T-cells were quantified by gating on PE, CD44, and CD8 positivity.
To test this hypothesis, C57BL/6 mice were inoculated subcutaneously with 1×10^6 E.G7-OVA cells (ATCC®; CRL-2113™), a murine T-cell lymphoma cell line engineered to stably express OVA and allow for modeling antigen-specific T-cell responses in mice (n=5 mice per group). […] Splenic T-cells from all groups were isolated and measured for OVA-specific reactivity as described in Example 11.

[3] = test system: A20 lymphoma cells; experiment: CIVO intratumoral microinjection, IFNβ mRNA by in situ hybridization; type: in vivo, BALB/cAnNHsd mice; settings: high dose free (printed 2 g), four hours post-injection
Method: All experiments in mice were approved by IACUC Board of Presage Biosciences, Seattle, Wash. (Protocol number PR-001) and were performed at Presage in accordance with relevant guidelines and regulations. All relevant procedures were performed under anesthesia and all efforts were made to minimize pain and suffering. Female BALB/cAnNHsd mice (Envigo) with an average weight of 18 gm were used for experiments at 5-7 weeks of age. For generating A20 allografts, mice were inoculated with 1 million A20 cells in 100 μl inoculation volume.
CIVO intra-tumoral microinjections were performed as described in Klinghoffer et al. (2016) Science Translational Medicine. Briefly, mice (n=6 per time point, 4 and 24 hours) were enrolled in microinjection studies when implanted tumors reached the following approximate dimensions: 14 mm (length), 10 mm (width) and 7 mm (depth). […]
Images of every cell from each tissue section stained were captured by digital, automated, high-resolution whole-tissue scanning (3D Histech Panoramic 250 Flash). Tumor responses were quantified from image files from each tissue section using Presage's custom CIVO Analyzer image analysis platform. […] In order to mitigate the influence of pre-existing necrosis on biomarker measurements, injection sites that fall within largely acellular tumor regions are excluded prior to quantitative analysis. […]

| Compound | injected tumor growth ([1]; 0.1 μg free + IgG or Anti-PD1) | contralateral (not injected) tumor ([1]; 20 μg free) | contralateral tumor reduction with anti-PD1 ([1]; 20 μg free + anti-PD-1 10 mg/kg IP) | injected tumor growth ([1]; 20 μg free, regardless of anti-PD1) | memory T-cell response (OVA-specific) ([2]; 0.2 μg intratumoral) | memory T-cell response (OVA-specific) ([2]; 20 μg intratumoral) | IFNβ mRNA levels [3] |
| --- | --- | --- | --- | --- | --- | --- | --- |
| Nc1ncnc2c1ncn2[C@@H]1O[C@@H]2COP(=O)(S)O[C@H]3[C@@H](F)[C@H](n4cnc5c(=O)[nH]cnc54)O[C@@H]3COP(O)(=S)O[C@H]2[C@H]1F (stereo partly shown) [3-3 cAIMPdFSH, 3′3′-cAIMPdFSH] | moderately potentiated | significant tumor reduction | more strengthened with anti-PD1 combination | Almost completely eliminated |  |  |  |
| Nc1ncnc2c1ncn2[C@@H]1O[C@@H]2COP(O)(=S)O[C@@H]3C(O)[C@@H](COP(O)(=S)O[C@H]2[C@H]1O)O[C@H]3n1cnc2c(N)ncnc21 (stereo partly shown) [ML RR-S2 CDA] |  |  |  |  | modest memory T-cell response | potent memory T-cell response | comparable between the high dose STING agonist and the PTGFRN O/E EXOSTING™ groups |
